Patent US10045990B2, “ERBB4 inhibitors and methods of use thereof” (Arizona Board of Regents on behalf of Arizona State …, priority 2015, dated 2018)
Like-named read-outs stand apart in the source and are kept apart here.

Key:
ERBB4 = ERBB4 (Homo sapiens, UniProt Q15303); test: radioactive kinase assay with purified kinase; assay type: biochemical; settings: 1 uM, radioactive ATP (FIG. 3A)
Experimental: (§1) First, radioactive kinase assays were performed with purified protein kinases incubated with radioactive ATP and increasing concentrations of kinase inhibitors. The kinase activity was measured through the levels of radioactive phosphorylation present in each kinase.

responsive cell lines = test: cell based assays, responsive cell lines; design: species or system human
BCRABL = test: NAPPA array kinase autophosphorylation assay; assay type: biochemical, human; settings: DMSO = 100
H661 = test: cell growth / viable cell count in ERBB4-overexpressing, BTK-negative cell line; assay type: cell-based, human
YES1 [1] = target: T1, YES1 (Homo sapiens, UniProt P07947); test: NAPPA array kinase autophosphorylation assay; assay type: biochemical; settings: DMSO = 100
T1 construct: made in house; host or cells: human cell-free coupled transcription-translation (1-Step Human Coupled IVT), on the slide
T1 sequence (P07947 whole entry): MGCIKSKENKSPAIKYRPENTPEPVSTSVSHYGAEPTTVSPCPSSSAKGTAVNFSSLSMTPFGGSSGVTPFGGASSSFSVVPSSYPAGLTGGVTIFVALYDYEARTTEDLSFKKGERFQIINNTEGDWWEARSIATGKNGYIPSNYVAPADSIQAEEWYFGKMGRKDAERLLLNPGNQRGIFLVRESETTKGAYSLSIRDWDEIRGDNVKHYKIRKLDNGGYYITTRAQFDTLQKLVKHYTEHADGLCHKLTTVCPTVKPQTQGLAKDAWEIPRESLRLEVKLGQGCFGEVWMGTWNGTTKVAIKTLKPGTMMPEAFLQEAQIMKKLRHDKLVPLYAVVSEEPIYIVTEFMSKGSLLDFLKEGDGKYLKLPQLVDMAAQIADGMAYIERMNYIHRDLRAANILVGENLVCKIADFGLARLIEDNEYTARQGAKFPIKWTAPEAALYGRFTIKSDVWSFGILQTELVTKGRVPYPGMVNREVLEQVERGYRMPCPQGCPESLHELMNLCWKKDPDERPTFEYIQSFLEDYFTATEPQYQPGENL

1321N1 = test: cell growth / viable cell count in ERBB4-overexpressing, BTK-negative cell line; assay type: cell-based, human
KLE = test: as above; assay type: cell-based, human; design: % Survival: dose or concentration left out as unconfirmed
COV434 = settings: 1 uM, 7 days, Trypan blue exclusion, vs DMSO
Abl1 = Abl1 (Homo sapiens, UniProt P00519); settings: DMSO = 100
Experimental: (§2) Protein microarrays were generated using NAPPA (Nucleic acid programmable protein array) methodology, which permits the use of freshly expressed proteins for functional assays (FIG. 1). In NAPPA, cDNAs coding for the target of interest are cloned into an expression vector, which generates a fusion (Halo Tag, GST, etc.) to the target, and spotted onto a glass slide. Then to each spot, a HeLa cell in vitro transcription-translation reagent is added, whereby the fusion gene is transcribed into mRNA and translated. The nascent proteins are captured to the slide with antibody to the fusion partner (i.e., HaloTag-ligand, α-GST antibody) that is spotted adjacent to the DNA during the manufacture of the array. This method allows for up to thousands of protein targets to be arrayed. NAPPA microarrays can be expressed using an in vitro transcription and translation system (IVTT), and the anti-tag antibody captures newly synthesized proteins. Following expression, the microarrays were treated with phosphatase to remove any phosphorylation that occurred during the expression of the proteins.
(§3) De-phosphorylated arrays were then incubated with kinase buffer containing various concentrations of ATP and/or kinase inhibitors. The kinase activity was measured as end point assay using anti-phopho tyrosine antibody linked to cy3 as the detecting agent (FIG. 2). The data was normalized using positive control features present in each array.
(§4) NAPPA kinase microarrays we generated with virtually all protein-tyrosine kinases from the human genome. The coding sequence for each tyrosine kinase was clone into an expression plasmid and immobilized on the microarray surface, with one protein kinase per feature. After the microarray was expressed, any phosphorylation that occurred during the expression step was removed by a treatment with lambda phosphatase.
(§5) Unphosphorylated microarrays were then incubated with a kinase buffer (25 mM Tris-HCl (pH 7.5), 5 mM beta-glycerophosphate, 2 mM dithiothreitol (DTT), 0.1 mM Na3VO4, 10 mM MgCl2) supplemented with […] and/or kinase inhibitors (concentration ranging from 0-10 uM). The kinase autophosphorylation activity was measured through the levels of phosphorylation present in each feature and was detected by phospho-tyrosine antibody. […] Staurosporine is a pan kinase inhibitor used as a control.
(§6) NAPPA arrays suitable for measuring the activity of protein kinases and evaluating the selectivity of kinase inhibitors were produced using a variation of the published protocol (Proteomics Clin Appl. 2013 June; 7(5-6):372-7.). Briefly, NAPPA printing mix was prepared with plasmid DNA coding for genes of interest, anti-flag antibody, cross-linker and poly-lysine. […]

BTK [2] = target: T2, BTK (Homo sapiens, UniProt Q06187); settings: DMSO = 100
T2 sequence (Q06187 whole entry): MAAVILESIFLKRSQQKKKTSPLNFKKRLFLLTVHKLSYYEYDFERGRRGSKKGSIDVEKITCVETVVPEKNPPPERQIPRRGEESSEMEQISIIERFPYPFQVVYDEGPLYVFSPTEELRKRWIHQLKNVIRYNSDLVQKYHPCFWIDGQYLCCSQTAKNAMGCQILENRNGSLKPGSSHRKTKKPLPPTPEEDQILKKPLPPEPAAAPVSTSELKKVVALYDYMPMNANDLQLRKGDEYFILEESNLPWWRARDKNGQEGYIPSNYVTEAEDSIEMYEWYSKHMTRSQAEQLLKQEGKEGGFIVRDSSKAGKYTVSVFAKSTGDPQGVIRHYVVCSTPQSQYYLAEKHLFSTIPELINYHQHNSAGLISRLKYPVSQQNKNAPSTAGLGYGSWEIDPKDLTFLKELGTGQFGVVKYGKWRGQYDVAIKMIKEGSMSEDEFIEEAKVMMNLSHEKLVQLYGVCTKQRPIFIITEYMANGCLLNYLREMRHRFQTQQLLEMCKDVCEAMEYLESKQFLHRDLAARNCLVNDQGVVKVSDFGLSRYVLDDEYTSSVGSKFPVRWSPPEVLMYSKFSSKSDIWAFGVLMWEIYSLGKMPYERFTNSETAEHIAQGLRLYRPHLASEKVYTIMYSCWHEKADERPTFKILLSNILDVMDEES
Experimental: as §2, §3, §4, §5, §6

H146 = test: cell growth / viable cell count in ERBB4-overexpressing, BTK-negative cell line; assay type: cell-based, human
H522 = test: as above; assay type: cell-based, human
COV318 = test: as above; assay type: cell-based, human
HEC59 = test: as above; assay type: cell-based, human; design: % Survival: dose or concentration left out as unconfirmed
FGFR1 = target: T3, FGFR1 (Homo sapiens, UniProt P11362); test: NAPPA array kinase autophosphorylation assay; assay type: biochemical; settings: DMSO = 100
T3 construct: made in house; host or cells: human cell-free coupled transcription-translation (1-Step Human Coupled IVT), on the slide
Experimental: as §2, §3, §4, §5
(§7) NAPPA arrays suitable for measuring the activity of protein kinases and evaluating the selectivity of kinase inhibitors were produced using a variation of the published protocol (Proteomics Clin Appl. 2013 June; 7(5-6):372-7.). Briefly, NAPPA printing mix was prepared with plasmid DNA coding for genes of interest, anti-flag antibody, cross-linker and poly-lysine. Samples were agitated for 90 minutes at 1200 rpm at RT and printed in quadruplicate in aminopropyltriethoxysilane coated glass slides.
(§8) Arrays were stored in an airtight container at room temperature until use.

ERBB3/HER3 = target: T4, ERBB3/HER3 (Homo sapiens, UniProt P21860); test: NAPPA array kinase autophosphorylation assay; assay type: biochemical; settings: DMSO = 100
T4 construct: made in house; host or cells: human cell-free coupled transcription-translation (1-Step Human Coupled IVT), on the slide
Experimental: as §2, §3, §4, §5, §7, §8

HCK = target: T5, HCK (Homo sapiens, UniProt P08631); test: NAPPA array kinase autophosphorylation assay; assay type: biochemical; settings: DMSO = 100
T5 construct: made in house; host or cells: human cell-free coupled transcription-translation (1-Step Human Coupled IVT), on the slide
T5 sequence (P08631 whole entry): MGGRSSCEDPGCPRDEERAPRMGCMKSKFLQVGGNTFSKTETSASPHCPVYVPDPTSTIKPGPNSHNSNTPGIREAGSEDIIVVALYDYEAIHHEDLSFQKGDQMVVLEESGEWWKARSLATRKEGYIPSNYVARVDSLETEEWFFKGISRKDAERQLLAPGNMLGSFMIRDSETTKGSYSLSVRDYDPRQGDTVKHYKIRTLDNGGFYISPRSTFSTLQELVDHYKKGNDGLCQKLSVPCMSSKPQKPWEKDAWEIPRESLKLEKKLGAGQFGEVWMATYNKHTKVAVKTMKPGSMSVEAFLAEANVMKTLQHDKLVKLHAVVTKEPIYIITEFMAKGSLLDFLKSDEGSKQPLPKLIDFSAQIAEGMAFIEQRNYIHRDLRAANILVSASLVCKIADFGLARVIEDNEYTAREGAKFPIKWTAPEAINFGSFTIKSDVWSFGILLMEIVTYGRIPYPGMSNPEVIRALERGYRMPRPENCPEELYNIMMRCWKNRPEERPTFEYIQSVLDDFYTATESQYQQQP
Experimental: as §2, §3, §4, §5, §7, §8

ERBB4/HER4 = target: T6, ERBB4/HER4 (Homo sapiens, UniProt Q15303); test: NAPPA array kinase autophosphorylation assay; assay type: biochemical; settings: DMSO = 100
T6 construct: made in house; host or cells: human cell-free coupled transcription-translation (1-Step Human Coupled IVT), on the slide
Experimental: as §2, §3, §4, §5, §7, §8

TESK2 = target: T7, TESK2 (Homo sapiens, UniProt Q96S53); test: NAPPA array kinase autophosphorylation assay; assay type: biochemical; settings: DMSO = 100
T7 construct: made in house; host or cells: human cell-free coupled transcription-translation (1-Step Human Coupled IVT), on the slide
Experimental: as §2, §3, §4, §5, §7, §8

FGFR4 = target: T8, FGFR4 (Homo sapiens, UniProt P22455); test: NAPPA array kinase autophosphorylation assay; assay type: biochemical; settings: DMSO = 100
T8 construct: made in house; host or cells: human cell-free coupled transcription-translation (1-Step Human Coupled IVT), on the slide
T8 sequence (P22455 22-802): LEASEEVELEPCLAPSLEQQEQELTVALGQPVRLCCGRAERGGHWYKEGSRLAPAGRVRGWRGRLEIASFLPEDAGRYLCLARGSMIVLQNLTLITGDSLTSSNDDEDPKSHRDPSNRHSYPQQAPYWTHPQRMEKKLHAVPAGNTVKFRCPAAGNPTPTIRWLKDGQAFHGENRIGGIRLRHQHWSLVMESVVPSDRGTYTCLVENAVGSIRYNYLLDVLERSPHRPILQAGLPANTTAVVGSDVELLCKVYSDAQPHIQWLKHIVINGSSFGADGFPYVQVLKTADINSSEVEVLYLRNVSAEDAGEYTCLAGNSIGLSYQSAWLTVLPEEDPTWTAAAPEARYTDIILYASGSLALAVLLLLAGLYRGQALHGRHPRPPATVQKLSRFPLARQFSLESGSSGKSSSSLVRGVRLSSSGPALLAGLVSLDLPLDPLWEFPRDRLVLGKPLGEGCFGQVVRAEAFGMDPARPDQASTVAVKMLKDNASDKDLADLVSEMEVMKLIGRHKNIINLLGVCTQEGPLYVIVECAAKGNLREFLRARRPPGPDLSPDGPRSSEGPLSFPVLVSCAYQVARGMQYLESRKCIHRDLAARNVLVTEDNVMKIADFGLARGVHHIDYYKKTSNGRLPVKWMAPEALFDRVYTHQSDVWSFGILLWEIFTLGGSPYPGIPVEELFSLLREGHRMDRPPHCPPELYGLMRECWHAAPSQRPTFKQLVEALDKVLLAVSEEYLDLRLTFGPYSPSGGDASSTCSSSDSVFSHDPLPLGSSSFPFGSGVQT
Experimental: as §2, §3, §4, §5, §7, §8

EGFR/ERBB1 = target: T9, EGFR/ERBB1 (Homo sapiens, UniProt P00533); test: NAPPA array kinase autophosphorylation assay; assay type: biochemical; settings: DMSO = 100
T9 construct: made in house; host or cells: human cell-free coupled transcription-translation (1-Step Human Coupled IVT), on the slide
Experimental: as §2, §3, §4, §5, §7, §8

EPHA3 = target: T10, EPHA3 (Homo sapiens, UniProt P29320); test: NAPPA array kinase autophosphorylation assay; assay type: biochemical; settings: DMSO = 100
T10 construct: made in house; host or cells: human cell-free coupled transcription-translation (1-Step Human Coupled IVT), on the slide
T10 sequence (P29320 21-983): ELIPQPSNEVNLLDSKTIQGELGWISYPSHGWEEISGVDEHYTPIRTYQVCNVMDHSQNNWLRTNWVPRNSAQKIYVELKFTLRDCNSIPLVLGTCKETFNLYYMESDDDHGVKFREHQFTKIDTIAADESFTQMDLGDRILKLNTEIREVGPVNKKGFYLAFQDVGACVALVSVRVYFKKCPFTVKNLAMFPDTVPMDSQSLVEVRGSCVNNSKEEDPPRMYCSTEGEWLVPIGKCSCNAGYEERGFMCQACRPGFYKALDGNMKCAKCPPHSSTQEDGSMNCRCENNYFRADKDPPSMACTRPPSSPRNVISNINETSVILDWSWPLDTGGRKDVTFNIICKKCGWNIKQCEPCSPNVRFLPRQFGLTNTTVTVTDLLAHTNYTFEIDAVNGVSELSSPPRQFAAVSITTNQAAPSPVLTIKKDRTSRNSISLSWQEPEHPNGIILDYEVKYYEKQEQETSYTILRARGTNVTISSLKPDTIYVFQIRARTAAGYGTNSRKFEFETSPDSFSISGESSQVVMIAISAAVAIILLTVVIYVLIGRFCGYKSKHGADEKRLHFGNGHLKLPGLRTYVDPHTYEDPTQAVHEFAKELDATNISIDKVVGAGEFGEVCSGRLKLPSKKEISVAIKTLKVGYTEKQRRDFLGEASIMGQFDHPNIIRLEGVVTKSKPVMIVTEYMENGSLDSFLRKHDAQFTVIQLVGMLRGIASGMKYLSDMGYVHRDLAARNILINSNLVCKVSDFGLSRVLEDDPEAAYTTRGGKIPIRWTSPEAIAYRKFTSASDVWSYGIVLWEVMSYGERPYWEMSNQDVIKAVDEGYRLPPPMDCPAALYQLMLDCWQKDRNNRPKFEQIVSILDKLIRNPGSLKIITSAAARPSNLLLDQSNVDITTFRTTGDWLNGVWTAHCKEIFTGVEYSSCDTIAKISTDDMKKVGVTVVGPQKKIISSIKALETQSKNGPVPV
Experimental: as §2, §3, §4, §5, §7, §8

EPHA7 = target: T11, EPHA7 (Homo sapiens, UniProt Q15375); test: NAPPA array kinase autophosphorylation assay; assay type: biochemical; settings: DMSO = 100
T11 construct: made in house; host or cells: human cell-free coupled transcription-translation (1-Step Human Coupled IVT), on the slide
T11 sequence (Q15375 28-998): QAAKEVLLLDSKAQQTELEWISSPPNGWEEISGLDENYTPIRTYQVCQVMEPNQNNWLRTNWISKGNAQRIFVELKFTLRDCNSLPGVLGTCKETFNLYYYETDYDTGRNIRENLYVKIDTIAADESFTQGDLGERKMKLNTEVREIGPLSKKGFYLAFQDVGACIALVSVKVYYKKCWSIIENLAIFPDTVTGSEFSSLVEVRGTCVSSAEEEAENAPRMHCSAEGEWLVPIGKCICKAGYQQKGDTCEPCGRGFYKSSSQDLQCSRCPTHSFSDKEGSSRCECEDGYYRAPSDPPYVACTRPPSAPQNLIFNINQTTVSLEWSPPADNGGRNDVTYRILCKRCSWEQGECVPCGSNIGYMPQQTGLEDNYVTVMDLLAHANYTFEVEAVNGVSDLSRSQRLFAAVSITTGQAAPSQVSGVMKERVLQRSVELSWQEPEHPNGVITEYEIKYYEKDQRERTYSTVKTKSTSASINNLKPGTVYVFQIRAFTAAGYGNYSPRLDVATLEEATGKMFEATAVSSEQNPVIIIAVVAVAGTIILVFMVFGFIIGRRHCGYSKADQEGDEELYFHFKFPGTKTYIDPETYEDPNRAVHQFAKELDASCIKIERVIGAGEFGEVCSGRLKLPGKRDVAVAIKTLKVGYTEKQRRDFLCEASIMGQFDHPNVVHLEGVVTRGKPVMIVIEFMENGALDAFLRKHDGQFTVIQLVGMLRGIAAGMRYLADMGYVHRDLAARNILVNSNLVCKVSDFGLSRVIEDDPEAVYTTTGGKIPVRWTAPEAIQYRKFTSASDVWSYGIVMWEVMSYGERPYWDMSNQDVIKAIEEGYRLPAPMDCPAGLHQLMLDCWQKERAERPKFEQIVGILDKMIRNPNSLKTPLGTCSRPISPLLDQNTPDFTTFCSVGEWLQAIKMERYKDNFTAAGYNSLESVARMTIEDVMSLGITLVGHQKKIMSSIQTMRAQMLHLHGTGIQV
Experimental: as §2, §3, §4, §5, §7, §8

SYK = SYK (Homo sapiens, UniProt P43405); test: NAPPA array kinase autophosphorylation assay; assay type: biochemical; settings: DMSO = 100
Experimental: as §2, §3, §4, §5, §7, §8

TNK2 = target: T12, TNK2 (Homo sapiens, UniProt Q07912); test: NAPPA array kinase autophosphorylation assay; assay type: biochemical; settings: DMSO = 100
T12 construct: made in house; host or cells: human cell-free coupled transcription-translation (1-Step Human Coupled IVT), on the slide
Experimental: as §2, §3, §4, §5, §7, §8

DYRK2 = target: T13, DYRK2 (Homo sapiens, UniProt Q92630); test: NAPPA array kinase autophosphorylation assay; assay type: biochemical; settings: DMSO = 100
T13 construct: made in house; host or cells: human cell-free coupled transcription-translation (1-Step Human Coupled IVT), on the slide
T13 sequence (Q92630 whole entry): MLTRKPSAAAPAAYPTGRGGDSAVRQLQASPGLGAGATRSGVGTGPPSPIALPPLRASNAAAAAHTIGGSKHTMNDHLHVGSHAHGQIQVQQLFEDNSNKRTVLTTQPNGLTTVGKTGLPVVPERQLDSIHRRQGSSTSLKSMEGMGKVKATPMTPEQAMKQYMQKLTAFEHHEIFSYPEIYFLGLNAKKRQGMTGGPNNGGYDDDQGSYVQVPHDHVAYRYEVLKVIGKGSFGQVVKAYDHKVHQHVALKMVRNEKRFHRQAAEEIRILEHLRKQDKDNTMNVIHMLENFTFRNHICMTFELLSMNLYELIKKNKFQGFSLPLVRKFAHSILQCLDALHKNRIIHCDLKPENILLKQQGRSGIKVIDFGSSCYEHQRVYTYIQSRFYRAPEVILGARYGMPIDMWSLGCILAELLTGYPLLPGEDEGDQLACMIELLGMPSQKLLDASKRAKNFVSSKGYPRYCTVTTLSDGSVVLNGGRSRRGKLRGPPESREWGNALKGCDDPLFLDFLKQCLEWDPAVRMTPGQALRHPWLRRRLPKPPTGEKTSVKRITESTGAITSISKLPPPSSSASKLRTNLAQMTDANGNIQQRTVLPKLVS
Experimental: as §2, §3, §4, §5, §7, §8

Tec = target: T14, Tec (Homo sapiens, UniProt P42680); test: NAPPA array kinase autophosphorylation assay; assay type: biochemical; settings: DMSO = 100
T14 construct: made in house; host or cells: human cell-free coupled transcription-translation (1-Step Human Coupled IVT), on the slide
Experimental: as §2, §3, §4, §5, §7, §8

EPHA1 = target: T15, EPHA1 (Homo sapiens, UniProt P21709); test: NAPPA array kinase autophosphorylation assay; assay type: biochemical; settings: DMSO = 100
T15 construct: made in house; host or cells: human cell-free coupled transcription-translation (1-Step Human Coupled IVT), on the slide
Experimental: as §2, §3, §4, §5, §7, §8

OVSAHO = settings: 1 uM, 7 days, Trypan blue exclusion, vs DMSO
OVKATE = settings: 1 uM, 7 days, Trypan blue exclusion, vs DMSO
H716 = test: cell growth / viable cell count in ERBB4-overexpressing, BTK-negative cell line; assay type: cell-based, human
YES1 [3] = target: T1, YES1; test: NAPPA array kinase autophosphorylation assay; assay type: biochemical; settings: Yes1 (second entry), DMSO = 100
BTK [4] = target: T2, BTK; settings: 1 uM, radioactive ATP (FIG. 3A)
Experimental: as §1

[5] = 0, 1 nM, 10 nM, 100 nM, 1 uM or 10 uM for 7 days
[6] = 1 uM, 7 days, Trypan blue exclusion, vs DMSO
[7] = percentage of viable cells after a 24-hour treatment of 1 nM ibrutinib

Ibrutinib
activity inhibited (ERBB4): more than 80%
inhibition in the responsive cell lines (responsive cell lines): 60-75%
kinase activity (%) (BCRABL; 0.1 uM Ibrutinib): 92.0%
kinase activity (%) (BCRABL; 1 uM Ibrutinib): 93.1%
sensitivity of cell line (H661; [5]): very sensitive
growth inhibition rate (H661; [6]): 72%
% Survival (H661; [7]): 28.2%
kinase activity (%) (YES1 [1]; 0.1 uM Ibrutinib): 99.3%
kinase activity (%) (YES1 [1]; 1 uM Ibrutinib): 90.9%
sensitivity of cell line (1321N1; [5]): apparently resistant
growth inhibition rate (1321N1; [6]): 10%
% Survival (1321N1; [7]): 89.7%
sensitivity of cell line (KLE; [5]): very sensitive
growth inhibition rate (KLE; [6]): 73%
% Survival (KLE; percentage of viable cells after ibrutinib): 27.2%
growth inhibition rate (COV434): 15%
kinase activity (%) (Abl1; 0.1 uM Ibrutinib): 101.5%
kinase activity (%) (Abl1; 1 uM Ibrutinib): 104.3%
kinase activity (%) (BTK [2]; 0.1 uM Ibrutinib): 38.3%
kinase activity (%) (BTK [2]; 1 uM Ibrutinib): 5.5%
growth inhibition rate (H146; H146, 1 uM, 7 days, Trypan blue exclusion, vs DMSO): 0%
% Survival (H146; H146, percentage of viable cells after a 24-hour treatment of 1 nM ibrutinib): 100.0%
sensitivity of cell line (H146; H416, 0, 1 nM, 10 nM, 100 nM, 1 uM or 10 uM for 7 days): apparently resistant
sensitivity of cell line (H522; [5]): very sensitive
growth inhibition rate (H522; [6]): 60%
% Survival (H522; [7]): 41.0%
sensitivity of cell line (COV318; [5]): apparently resistant
growth inhibition rate (COV318; [6]): 8%
% Survival (COV318; [7]): 91.5%
growth inhibition rate (HEC59; HEC59, 1 uM, 7 days, Trypan blue exclusion, vs DMSO): 31%
% Survival (HEC59; HEC59, percentage of viable cells): 68.8%
sensitivity of cell line (HEC59; Hec59, 0, 1 nM, 10 nM, 100 nM, 1 uM or 10 uM for 7 days): apparently resistant
kinase activity (%) (FGFR1; 0.1 uM Ibrutinib): 98.8%
kinase activity (%) (FGFR1; 1 uM Ibrutinib): 105.8%
kinase activity (%) (ERBB3/HER3; 0.1 uM Ibrutinib): 100.0%
kinase activity (%) (ERBB3/HER3; 1 uM Ibrutinib): 206.1%
kinase activity (%) (HCK; 0.1 uM Ibrutinib): 102.1%
kinase activity (%) (HCK; 1 uM Ibrutinib): 105.0%
kinase activity (%) (ERBB4/HER4; 0.1 uM Ibrutinib): 67.1%
kinase activity (%) (ERBB4/HER4; 1 uM Ibrutinib): 44.1%
kinase activity (%) (TESK2; 0.1 uM Ibrutinib): 85.8%
kinase activity (%) (TESK2; 1 uM Ibrutinib): 83.5%
kinase activity (%) (FGFR4; 0.1 uM Ibrutinib): 81.5%
kinase activity (%) (FGFR4; 1 uM Ibrutinib): 99.1%
kinase activity (%) (EGFR/ERBB1; 0.1 uM Ibrutinib): 81.2%
kinase activity (%) (EGFR/ERBB1; 1 uM Ibrutinib): 89.7%
kinase activity (%) (EPHA3; 0.1 uM Ibrutinib): 89.1%
kinase activity (%) (EPHA3; 1 uM Ibrutinib): 101.3%
kinase activity (%) (EPHA7; 0.1 uM Ibrutinib): 92.3%
kinase activity (%) (EPHA7; 1 uM Ibrutinib): 94.9%
kinase activity (%) (SYK; 0.1 uM Ibrutinib): 90.5%
kinase activity (%) (SYK; 1 uM Ibrutinib): 109.7%
kinase activity (%) (TNK2; 0.1 uM Ibrutinib): 99.9%
kinase activity (%) (TNK2; 1 uM Ibrutinib): 86.9%
kinase activity (%) (DYRK2; 0.1 uM Ibrutinib): 97.3%
kinase activity (%) (DYRK2; 1 uM Ibrutinib): 82.3%
kinase activity (%) (Tec; 0.1 uM Ibrutinib): 68.7%
kinase activity (%) (Tec; 1 uM Ibrutinib): 62.0%
kinase activity (%) (EPHA1; 0.1 uM Ibrutinib): 87.2%
kinase activity (%) (EPHA1; 1 uM Ibrutinib): 99.1%
growth inhibition rate (OVSAHO): 37%
growth inhibition rate (OVKATE): 45%
sensitivity of cell line (H716; [5]): very sensitive
growth inhibition rate (H716; [6]): 75%
% Survival (H716; [7]): 25.5%
kinase activity (%) (YES1 [3]; 0.1 uM Ibrutinib): 101.6%
kinase activity (%) (YES1 [3]; 1 uM Ibrutinib): 97.6%
activity inhibited (BTK [4]): more than 80%
